Assay results as given in patent publication US20120225862A1, “HETEROARYL BENZAMIDES, COMPOSITIONS AND METHODS OF USE” (AUCKLAND UNIVSERVICES LIMITED, priority 2009, published 2012).

Legend:
[1] = test system: RCC4; experiment: XTT IC50 / viability assay, RCC4 cells; assay type: cell-based, human
How it was run: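 RCC4 parental and VHL-reintroduced RCC4/VHL cells (DMEM, 10% FCS) treated with serially diluted drug for four days. Viability by XTT (0.3 mg/mL) with N-methyl dibenzopyrazine methyl sulfate, 1–2 h at 37 °C, absorbance 450 nm; IC50 by linear interpolation.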

[2] = molecular target: T1, GSK3α (Homo sapiens, UniProt P49840); experiment: In vitro kinase activity (Millipore KinaseProfiler): GSK3α; assay type: biochemical; conditions: no head or unit printed
T1 construct: purchased Millipore (KinaseProfiler service)
T1 sequence (P49840 whole entry, species assumed): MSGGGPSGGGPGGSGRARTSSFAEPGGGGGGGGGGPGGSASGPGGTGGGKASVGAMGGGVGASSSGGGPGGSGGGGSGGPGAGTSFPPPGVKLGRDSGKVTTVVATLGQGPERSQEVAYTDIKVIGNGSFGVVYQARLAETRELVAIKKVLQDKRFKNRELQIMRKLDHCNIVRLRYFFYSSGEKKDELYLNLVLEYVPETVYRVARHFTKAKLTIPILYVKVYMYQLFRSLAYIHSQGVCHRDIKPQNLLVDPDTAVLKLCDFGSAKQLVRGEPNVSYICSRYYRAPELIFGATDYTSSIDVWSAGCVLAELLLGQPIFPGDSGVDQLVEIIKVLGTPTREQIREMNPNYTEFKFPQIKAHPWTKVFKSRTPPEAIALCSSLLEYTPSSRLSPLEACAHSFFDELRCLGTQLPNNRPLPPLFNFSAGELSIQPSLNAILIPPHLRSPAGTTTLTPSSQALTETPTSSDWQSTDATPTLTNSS
Experimental: (§1) All cells were grown in DMEM+10% FCS. ACHN and ACHN shVHL were a kind gift from George V. Thomas (UCLA). HIF overexpressing clones were described previously. Transfection of RNA oligos were performed with DnarmaFECT Reagent 1 (Dharmcon), according to manufacturer's directions. ON-TARGETplus SMART pools against HIF-1β/ARNT were purchased from Dharmacon. Glut1 was detected with anti-GLUT1 antibody from NeoMarkers/LabVision/Fisher. Pyruvate/lactate levels and hexokinase activity were both measured by fluorometric assay (BioVision and Sigma-Aldrich, respectively). ATP levels were measured by bioluminescence assay (ATP Determination Kit from Molecular Probes/Invitrogen). In vitro kinase activities were performed by Millipore KinaseProfiler. Affi-Gel 10 (BioRad) activated affinity media was coupled to analogs to generate immobilized affinity linkers.
(§2) We next wanted to investigate the differential glucose uptake between RCCs with and without VHL treated with compound 47 that subsequently lead to the selective death of VHL-deficient cells. We first examined the message levels of the two main glucose transporters, GLUT1 and GLUT2 by quantitative real-time PCR. GLUT1 is an inducible, high-affinity glucose transporter, while GLUT2 is the glucose transporter responsible for basal glucose uptake. […] Cells deficient in VHL had very low levels of GLUT2 that could barely be detected (FIG. 3J). […]

[3] = molecular target: T2, NEK2 (Homo sapiens, UniProt P51955); experiment: In vitro kinase activity (Millipore KinaseProfiler): NEK2; assay type: biochemical; conditions: no head or unit printed
T2 construct: purchased Millipore (KinaseProfiler service)
T2 sequence (P51955 whole entry, species assumed): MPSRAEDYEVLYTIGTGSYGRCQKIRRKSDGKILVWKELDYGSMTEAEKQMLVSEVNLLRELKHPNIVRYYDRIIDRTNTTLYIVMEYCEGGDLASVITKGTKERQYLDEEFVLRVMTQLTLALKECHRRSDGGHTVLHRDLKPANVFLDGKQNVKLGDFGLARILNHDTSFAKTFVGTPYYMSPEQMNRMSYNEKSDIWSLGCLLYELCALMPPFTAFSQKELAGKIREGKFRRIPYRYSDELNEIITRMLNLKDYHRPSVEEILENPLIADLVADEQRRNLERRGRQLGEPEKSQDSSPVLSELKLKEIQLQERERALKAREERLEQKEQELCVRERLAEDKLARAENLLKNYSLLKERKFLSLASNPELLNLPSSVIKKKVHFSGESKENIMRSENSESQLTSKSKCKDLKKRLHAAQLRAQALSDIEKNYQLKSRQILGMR
Experimental: as §1, §2

[4] = test system: 786-O; experiment: 3H-2-deoxyglucose uptake, 786-O; assay type: cell-based, human; conditions: 5 μM, FIG. 8B
Experimental: One hundred thousand cells were plated into 6-well plates. The following day, the cells were treated with vehicle or drug and incubated for the indicated time. Cells were washed twice in phosphate buffered saline and low glucose media was added for 30 minutes. Cells were then incubated with 0.5 microCi of tritiated-2-deoxyglucose and incubated for an hour at 37° C. Cells were washed twice in PBS and then lysed in 0.2 N NaOH and 0.2% SDS. Lysates were transferred to scintillation tubes with scintillation fluid and quantified by scintillation counter.
One hundred thousand cells were plated per well in a six-well plate. The next day, cells were treated with the indicated concentration of drug and incubated for the indicated time. Cells were then washed twice with phosphate-buffered saline, incubated in low-glucose medium for 30 minutes, and ^3H-2-deoxyglucose (0.5 μCi) was added in 1 ml of glucose-free media for an additional hour. Cells were washed twice in PBS and lysed (0.2 N NaOH and 0.2% sodium dodecyl sulfate). Glucose uptake was quantified with a scintillation counter.

Question: Which IC50 ([1]; Homo sapiens, RCC4, 96 h, XTT assay, four days) does the source give for `CC(C)(C)c1ccc(S(=O)(=O)NCc2ccc(C(=O)Nc3cccnc3)cc2)cc1` [Example 38, 4-((4-tert-Butylphenylsulfonamido)methyl)-N-(pyridin-3-yl)benzamide] here?
Answer: < 1000 nM

Question: What about the “number of RCC4 cells compared to RCC4/VHL (XTT metabolic activity)” value ([1]; four days of treatment, concentration-dependent, FIG. 2A) of the same compound?
Answer: significant decrease in the number of RCC4 cells

Question: What about the GSK3α kinase activity [2] of the same compound?
Answer: 134

Question: And the NEK2 kinase activity [3]?
Answer: 103

Question: And the “glucose uptake in 786-O cells” value [4]?
Answer: impaired glucose uptake
